# According to patent publication US20160263048A1, “BIOADHESIVE POLYMER-BASED CONTROLLED-RELEASE SYSTEMS, PRODUCTION PROCESS AND CLINICAL USES THEREOF” (priority 2010, published 2016):
# Like-named read-outs stand apart in the source and are kept apart here.
# Assays:
# Solubility in water = format: physicochemical; settings: molar ratio TrA/HPβCD 1:10
# Text: Currently used cyclodextrins are preferably semi-synthetic derivatives of β-cyclodextrin, soluble in highly polar organic solvents, marketed by Roquette or Wacker such as hydroxypropyl-βCD (HPβCD) and Methyl-βCD. The HPβCD marketed by Roquette under the name Kleptose® HP is an amorphous white powder, with a solubility in water higher than 1 g/ml. Further to this, it has a good stability both in acidic and in basic milieu and can be used to administrate drugs both by injection and by the oral route. The second one, under the name Kleptose® Crysmeb® exp, is a mixture of cyclodextrins which contain from one to seven methyl groups. Crysmeb® has an average of 4 methyl groups for one cyclodextrin molecule and has an average molecular weight of 1191 dalton. It is a white powder, easily soluble in water and its solubility grows with the temperature, and, in addition, it is very stable both in and acidic and in basic milieus.
# Such a capability was tested for the buccal release of triamcinolone acetonide (TrA), a corticosteroid drug poorly soluble in water. According to the European Pharmacopeia, TrA is a drug that is practically not soluble in water, since its solubility in this vehicle is about 0.02 mg/ml. The presence of HPβCD in the film enhances TrA solubility by 600 fold, i.e., to about […] (molar ratio TrA/HPβCD 1:10). […]
# [1] = cited from earlier work
Molecule,enhancement of TrA solubility by presence of HPβCD (Solubility in water) [fold],TrA solubility in presence of HPβCD (Solubility in water; no further enhancement at higher HPβCD concentration),solubility in water ([1]; according to the European Pharmacopeia),solubility in water ([1]; Kleptose® HP marketed by Roquette)
"CC1(C)O[C@@H]2C[C@H]3[C@@H]4CCC5=CC(=O)C=C[C@]5(C)[C@@]4(F)[C@@H](O)C[C@]3(C)[C@]2(C(=O)CO)O1 [TrA, triamcinolone acetonide]",600,about 4 % w/v,about 0.02 mg/ml,–
hydroxypropyl-βCD [HPβCD],–,–,–,higher than 1 g/ml
